Measurements published in publication PMC6427567, “Discovery of novel coumarin derivatives as potent and orally bioavailable BRD4 inhibitors based on scaffold hopping” (Journal of Enzyme Inhibition and Medicinal Chemistry, 2019).
pIC50: −log10 of the molar value.

How the values were obtained:
[1] = target: T1, BRD4-full length: recombinant human bromodomain containing protein 4 (bromodomain 1 and 2; aa 2–1362) (Homo sapiens, UniProt O60885); experiment: BRD4 binding assay (AlphaScreen); details: for pIC50 / BRD4 binding activity in words: AlphaScreen assay; for LE (Ligand Efficiency): LE = 1.4 (pIC50/heavy atoms)
T1 construct: (bromodomain 1 and 2; aa 2–1362; Genbank Accesstion # NM_058243); host or cells: Sf9 insect cells
Method: The binding affinity was evaluated by a using AlphaScreen technology […] assay. The biotinylated peptide binding to the reader domain of His-tagged protein is monitored by the singlet oxygen transfer from the Streptavidin-coated donor beads to the AlphaScreen Ni-chelate acceptor beads. Reagent:Reaction buffer:50 mM Hepes, pH7.5, 100 mM NaCl, 0.05% CHAPS, 0.1% BSA, and 1% DMSO (the final DMSO concentration may different depending on compound stock and test concentrations). […] MW = 156.5 kDa. […] Reaction procedure: (1) Deliver 2.5× BRD in wells of reaction plate except No BRD control wells. Add buffer instead. (2) Deliver compounds in 100% DMSO into the BRD mixture by Acoustic technology (Echo550; nanoliter range). Spin down and pre-incubation for 30 min. (3) Deliver 5 × Ligand. Spin and shake. (4) Incubate for 30 min at room temperature with gentle shaking. (5) Deliver 5× donor beads. Spin and shake. (6) Deliver 5 × acceptor beads. Spin and shake. Then gentle shaking in the dark for 60 min. (7) Alpha measurement (Ex/Em = 680/520–620 nm) in Enspire.

[2] = set-up: method as in PMID 23095041; details: cited from earlier work

SMILES	pIC50 [1]	LE (Ligand Efficiency) [1]	also measured
O=c1ccc2cc(NS(=O)(=O)c3ccccc3)ccc2o1 [Compound 1, N-(2-oxo-2H-chromen-6-yl)benzenesulphonamide]	5.18	0.35	
O=c1ccc2cc(NS(=O)(=O)C3CCCCC3)ccc2o1 [Compound 2, N-(2-oxo-2H-chromen-6-yl)cyclohexanesulphonamide]	4.72	0.31	
O=c1ccc2cc(NS(=O)(=O)C3CCCC3)ccc2o1 [Compound 3, N-(2-oxo-2H-chromen-6-yl)cyclopentanesulphonamide]	4.75	0.33	
CCCS(=O)(=O)Nc1ccc2oc(=O)ccc2c1 [Compound 4, N-(2-oxo-2H-chromen-6-yl)propane-1-sulphonamide]	4.41	0.34	
CCCCS(=O)(=O)Nc1ccc2oc(=O)ccc2c1 [Compound 5, N-(2-oxo-2H-chromen-6-yl)butane-1-sulphonamide]	4.52	0.33	
O=c1ccc2cc(NS(=O)(=O)c3ccc(Cl)cc3)ccc2o1 [Compound 6, 4-chloro-N-(2-oxo-2H-chromen-6-yl)benzenesulphonamide]	5.53	0.34	
COc1ccc(S(=O)(=O)Nc2ccc3oc(=O)ccc3c2)cc1 [Compound 7, 4-methoxy-N-(2-oxo-2H-chromen-6-yl)benzene sulphonamide]	5.14	0.33	
CC(C)(C)c1ccc(S(=O)(=O)Nc2ccc3oc(=O)ccc3c2)cc1 [Compound 8, 4-(tert-butyl)-N-(2-oxo-2H-chromen-6-yl)benzene sulphonamide]	5.29	0.30	
N#Cc1cccc(S(=O)(=O)Nc2ccc3oc(=O)ccc3c2)c1 [Compound 9, 3-cyano-N-(2-oxo-2H-chromen-6-yl)benzene sulphonamide]	5.30	0.32	
O=c1ccc2cc(NS(=O)(=O)c3ccccc3Cl)ccc2o1 [Compound 10, 2-chloro-N-(2-oxo-2H-chromen-6-yl)benzenesulphonamide]	5.66	0.36	
COc1ccccc1S(=O)(=O)Nc1ccc2oc(=O)ccc2c1 [Compound 11, 2-methoxy-N-(2-oxo-2H-chromen-6-yl)benzenesulphonamide]	6.01	0.37	lipophilic efficiency (LipE) ([1]; LipE = −lg (IC50) − logP): 3.9; fold more potent than 1 (BRD4 IC50) ([1]; compared with compound 1): approximately 7 fold
O=c1ccc2cc(NS(=O)(=O)c3ccc(Cl)cc3Cl)ccc2o1 [Compound 12, 2,4-dichloro-N-(2-oxo-2H-chromen-6-yl)benzenesulphonamide]	5.75	0.35	
O=c1ccc2cc(NS(=O)(=O)c3cccs3)ccc2o1 [Compound 14, N-(2-oxo-2H-chromen-6-yl)thiophene-2-sulphonamide]	5.03	0.35	BRD4 binding activity in words [1]: low binding activity
O=c1ccc2cc(NS(=O)(=O)c3ccc4ccccc4c3)ccc2o1 [Compound 15, N-(2-oxo-2H-chromen-6-yl)naphthalene-2-sulphonamide]	4.91	0.28	BRD4 binding activity in words [1]: reduction of affinity
O=c1ccc2cc(NS(=O)(=O)c3ccc4c(c3)CCO4)ccc2o1 [Compound 16, N-(2-oxo-2H-chromen-6-yl)-2,3-dihydrobenzofuran-5-sulphonamide]	4.73	0.28	BRD4 binding activity in words [1]: reduction of affinity
COc1ccc(NS(=O)(=O)c2ccc3oc(=O)ccc3c2)cc1 [Compound 17, N-(4-methoxyphenyl)-2-oxo-2H-chromene-6-sulphonamide]	4.49		fold decrease in potency compared with 7 (BRD4) ([1]; compared with compound 7): ~5 fold
COc1ccccc1S(=O)(=O)Nc1ccc2c(c1)CN(C)C(=O)N2 [PFI-1]			oral bioavailability (F) [2]: 32%
